Laboratory results as given in US10064838B2, “Method for treating tau-associated diseases using tetrahydropyranol derivatives” (NATIONAL TAIWAN NORMAL UNIVERSITY, priority 2016, dated 2018).

Assays:
ΔK280 tauRD-DsRed = target: T1, ΔK280 tauRD-DsRed (Homo sapiens, UniProt P10636, DEL597-597); assay: Inhibition of ΔK280 tauRD-DsRed aggregation (DsRed fluorescence, high content analysis); assay type: cell-based; settings: 8 h pretreatment, Dox 3 days, ΔK280 tauRD-DsRed 293 cells
T1 construct: tauRD: Gln^244-Glu^372 of the longest tau^441 isoform; expressed in transfected cells; host or cells: HEK-293 (Tet-On, doxycycline-induced)
T1 sequence (P10636 with tags, fused parts or gaps isoform P10636-8 DEL280-280): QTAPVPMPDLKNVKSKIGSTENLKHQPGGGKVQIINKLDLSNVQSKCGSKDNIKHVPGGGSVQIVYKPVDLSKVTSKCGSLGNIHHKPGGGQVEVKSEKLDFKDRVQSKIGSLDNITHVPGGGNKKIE
Excerpt: We used human embryonic kidney HEK-293 (cultured with DMEM supplemented with 10% FBS) and neuroblastoma SH-SY5Y (cultured with DMEM F12 supplemented with 10% FBS) cells expressing a DsRed-tagged pro-aggregation mutant (ΔK280) of the C-terminal repeat domain of tau (tauRD: Gln^244-Glu^372 of the longest tau^441 isoform). The recombinant tauRD-DsRed construct was under the control of a hybrid human cytomegalovirus (CMV)/TetO2 promoter that can be induced by adding doxycycline. The Tet-On ΔK280 tauRD-DsRed 293 and SH-SY5Y cells were grown in medium containing blasticidin (5 μg/mL) and hygromycin (100 μg/mL) and were used for the following evaluation.
ΔK280 tauRD-DsRed 293 cells were seeded into 96-well plates, grown for 24 h, and pretreated with 0.1, 1, 10 μM of congo red (a known tau aggregation inhibitor), compound (A), compound (B), and compound (C) for 8 h. Then doxycycline (Dox; 1 μg/mL) was added for 3 days to induce ΔK280 tauRD-DsRed expression and DsRed fluorescence was assessed using a high content analysis (HCA) system.
The DsRed fluorescence of ΔK280 tauRD-DsRed fusion protein was used to reflect the aggregation condition of ΔK280 tauRD. Misfolding of fused DsRed occurred when ΔK280 tauRD aggregated, and thus decreasing the DsRed fluorescence. Accordingly, inhibition of ΔK280 tauRD aggregation may improve the DsRed misfolding and increase DsRed fluorescence.

[1] = MTT cytotoxicity in SH-SY5Y cells; assay type: cell-based; settings: human, 24 h treatment, read-out: half maximal inhibitory concentration (IC50), cytotoxicity
Protocol: (§1) The HEK-293 cells and SH-SY5Y cells were seeded into a 48-well plate (5×10^4), grown for 24 h, and treated with 0.1 μM, 1 μM, 10 μM, 100 μM of compound (A), compound (B), or compound (C) individually for 24 h. Then 20 μL of MTT (5 mg/mL dissolved in PBS) was added for 2 h and the full wavelength microplate spectrophotometer was used for detecting the absorbance of the purple formazan at 570 nm.
(§2) As a result, the cytotoxicities of compound (A), compound (B), and compound (C) are low and not harmful to the cells.

[2] = MTT cytotoxicity in HEK-293 cells; assay type: cell-based; settings: human, 24 h treatment, read-out: half maximal inhibitory concentration (IC50), cytotoxicity
Protocol: as §1, §2

[3] = Cytotoxicity in 293 cells expressing ΔK280 tauRD-DsRed fusion protein; assay type: cell-based; settings: human, ΔK280 tauRD-DsRed 293 cells
[4] = tested on: ΔK280 tauRD-DsRed SH-SY5Y cells; assay: Neurite growth in induced ΔK280 tauRD-DsRed SH-SY5Y cells; assay type: cell-based, human; settings: 10 μM, 8 h pretreatment, Dox 7 days, retinoic acid-differentiated
Protocol: ΔK280 tauRD-DsRed SH-SY5Y tauRD-DsRed cells were seeded in 6-well plate (1×10^5/well) in a medium containing all-trans retinoic acid (10 μM), grown for 24 h, and pretreated with 10 μM of congo red, compound (A), compound (B), and compound (C) for 8 h; after which, ΔK280 tauRD-DsRed expression was induced with 1 μg/mL doxycycline for 7 days. The cells were then fixed in 4% paraformaldehyde, permeabilized with 0.1% Triton X-100, blocked in 3% BSA, stained with the primary antibody anti-TUBB3 (against neuronal Class III β-tubulin) (1:1000; Convance) and with a secondary anti-rabbit Alexa Fluor® 555 antibody (1:500; Molecular Probes), and then incubated at room temperature for 3 h. Nuclei were counterstained with 4′,6-diamidino-2-phenylindole (DAPI). The total outgrowth in the untreated cells, cells treated with congo red, compound (A), compound (B), and compound (C) were assessed using MetaMorph image acquisition and analysis software.

[5] = tested on: ΔK280 tauRD-DsRed 293 cells; assay: ROS level (DCFH-DA, flow cytometry) in induced ΔK280 tauRD-DsRed 293 cells; assay type: cell-based, human; settings: 10 μM, 8 h pretreatment, Dox 3 days
Protocol: (§3) ΔK280 tauRD-DsRed 293 cells were seeded into 12-well plates, grown for 24 h, and pretreated with 10 μM of congo red, compound (A), compound (B), and compound (C) respectively for 8 h. Then, doxycycline (1 μg/mL) was added for 3 days to induce ΔK280 tauRD-DsRed expression.
Next, uninduced cells, doxycycline-induced but compound-untreated cells, and doxycycline-induced and compound-treated cells were incubated with 2′,7′-dichlorodihydrofluorecein diacetate (DCFH-DA) in 37° C. for 30 minutes, and then washed with PBS. The excited green fluorescence intensity under 492-495/517-527 nm of excitation/emission wavelength was measured using flow cytometry (BD) to evaluate the ROS level.

caspase 3 = assay: Caspase 3 activity (Ac-DEVD-AMC) in induced ΔK280 tauRD-DsRed 293 cells; assay type: cell-based, human; settings: 10 μM, 8 h pretreatment, Dox 3 days
Protocol: as §3
In addition, the caspase 3 activity of uninduced cells, doxycycline-induced but compound-untreated cells, and doxycycline-induced and compound-treated cells were measured using Caspase 3 Assay Kit (Sigma). 10^6 cells in each group were harvested and 100 μL of lysis buffer was added, incubated on the ice for 20 minutes, and then, Ac-DEVD-AMC substrate was added into each group. The release of the fluorescent AMC was recorded under 360/460 nm of excitation/emission wavelength using an FLx800 microplate fluorescence reader (Bio-Tek). The caspase 3 activity was calculated using an AMC standard curve.

| DsRed fluorescence intensity relative to untreated cells (100%) (ΔK280 tauRD-DsRed; 1-10 μM) | DsRed fluorescence intensity relative to untreated cells (100%) (ΔK280 tauRD-DsRed; 10 μM) [%] | Structure (SMILES) | IC50 at 24 h [1] [µM] | IC50 at 24 h [2] [µM] | IC50 at 80 h [3] [µM] | neurite growth (uninduced cells 100%; induced untreated 89%) [4] [%] | ROS level (uninduced cells 100%; induced untreated 110%) [5] [%] | caspase 3 activity (uninduced cells 100%; induced untreated 129%) (caspase 3) [%] |
| --- | --- | --- | --- | --- | --- | --- | --- | --- |
| 106-113% |  | CCOC(=O)[C@@H]1OC(O)[C@H](C)[C@@H](c2ccccc2)[C@@H]1[N+](=O)[O-] (some centres unmarked) [compound (C)] | 275 | 135 | 42 |  |  |  |
|  | 108 | Nc1c(/N=N/c2ccc(-c3ccc(/N=N/c4cc(S(=O)(=O)O)c5ccccc5c4N)cc3)cc2)cc(S(=O)(=O)O)c2ccccc12 [congo red] |  |  | 60 | 99 | 93 | 63 |
|  | 111 | CCOC(=O)[C@@H]1OC(O)[C@H](C)[C@@H](c2cccs2)[C@@H]1[N+](=O)[O-] (some centres unmarked) [compound (B)] | 273 | 135 | 42 |  |  |  |
| 105-110% |  | CCOC(=O)[C@@H]1OC(O)[C@H](C)[C@@H](c2ccc(OC)cc2)[C@@H]1[N+](=O)[O-] (some centres unmarked) [compound (A)] | 267 | 128 | 32 |  |  |  |
